Measurements from ChEMBL document CHEMBL2034833, “Synthesis of chalcone-amidobenzothiazole conjugates as antimitotic and apoptotic inducing agents” (Bioorg Med Chem, 2012).
Calls of active or inactive are those of the source. The rule behind the calls is not given here.

What was measured:
[1] = test system: ACHN; test: Cytotoxicity against human ACHN cells after 48 hrs by MTT assay; type: functional, cell-based
[2] = test system: A549; test: Cell cycle arrest in human A549 cells assessed as cell accumulation at subG1 phase at 2 uM after 48 hrs by propidium iodide staining based flow cytometry (reference value: […]); type: functional
[3] = test system: A-375; test: Cytotoxicity against human A375 cells after 48 hrs by MTT assay; type: functional, cell-based; details: A-375, 48 h
[4] = test system: A549; test: Cell cycle arrest in human A549 cells assessed as cell accumulation at G2/M phase at 2 uM after 48 hrs by propidium iodide staining based flow cytometry (reference value: 23.75%); type: functional
[5] = Inhibition of tubulin polymerization after 1 hr by fluorescence assay
[6] = test system: A549; test: Cell cycle arrest in human A549 cells assessed as cell accumulation at G0/G1 phase at 2 uM after 48 hrs by propidium iodide staining based flow cytometry (reference value: 70.15%); type: functional
[7] = test system: HT-29; test: Cytotoxicity against human HT-29 cells after 48 hrs by MTT assay; type: functional, cell-based; details: HT-29, 48 h, read-out: IC50
[8] = test system: A549; test: Induction of apoptosis in human A549 cells assessed as increase in caspase3 activity using AFC-conjugated Ac-DEVD as substrate at 2 uM after 48 hrs by fluorescence assay relative to control; type: functional
[9] = test system: A549; test: cells; details: Homo sapiens, A549, 48 h
Description: Cytotoxicity against human A549 cells after 48 hrs by MTT assay

[10] = Inhibition of tubulin polymerization at 3 uM after 1 hr by fluorescence assay
[11] = test system: MCF7; test: cells; details: Homo sapiens, MCF7, 48 h
Description: Cytotoxicity against human MCF7 cells after 48 hrs by MTT assay

[12] = target: Tubulin (Homo sapiens) (UniProt P68371+Q9H4B7+P0DPH7+P68366+Q13509+Q71U36+P04350+Q3ZCM7+P07437+P68363+Q9BQE3+Q6PEY2+Q13885+Q9BVA1+Q9BUF5); test: Inhibition of tubulin polymerization in human A549 cells assessed as disrupted microtubule organization at 2 uM after 48 hrs by immunohistochemistry analysis; type: cell-based

IC50 [5]: 3700 nM | IC50 [9]: 760 nM | inhibition [10]: 62.6% | IC50 [11]: 120 nM | inhibition [12]: Active
Structure (SMILES): COc1ccc(/C=C/C(=O)c2cc(OC)c(OC)c(OC)c2)cc1O
IC50 [1]: 1620 nM | Activity [2]: 12.34% | IC50 [3]: 190 nM | Activity [4]: 55.47% | Activity [6]: 18.59% | IC50 [7]: 1900 nM | fold change (FC) [8]: 6
